Test results reported in ChEMBL document CHEMBL1201862, “PubChem BioAssay data set” (2004).
Active and inactive are the calls of the source.

Assays:
[1] = target: 72 kDa type IV collagenase (Homo sapiens, UniProt P08253); experiment: Dose Response validation of uHTS RPN11 inhibitor hits using a MMP-2 Fluorescence assay.; format: functional
Prothrombin = Prothrombin (Bos taurus, UniProt P00735); experiment: thrombin inhibition, dose response, biochemical, fluorescence polarization, uHTS hits (AID 602369); format: functional
[2] = target: 26S proteasome non-ATPase regulatory subunit 14 (Homo sapiens, UniProt O00487); experiment: inhibition of proteasome subunit RPN11 – biochemical, fluorescence polarization, uHTS hits, confirmation (AID 602368); format: functional
[3] = target: T1, High affinity choline transporter 1 (Homo sapiens, UniProt Q9GZV3); experiment: CHT inhibitors, dose response, cell-based, 5-point CRC, membrane potential dye (AID 504840); format: functional
T1 sequence (Q9GZV3 whole entry): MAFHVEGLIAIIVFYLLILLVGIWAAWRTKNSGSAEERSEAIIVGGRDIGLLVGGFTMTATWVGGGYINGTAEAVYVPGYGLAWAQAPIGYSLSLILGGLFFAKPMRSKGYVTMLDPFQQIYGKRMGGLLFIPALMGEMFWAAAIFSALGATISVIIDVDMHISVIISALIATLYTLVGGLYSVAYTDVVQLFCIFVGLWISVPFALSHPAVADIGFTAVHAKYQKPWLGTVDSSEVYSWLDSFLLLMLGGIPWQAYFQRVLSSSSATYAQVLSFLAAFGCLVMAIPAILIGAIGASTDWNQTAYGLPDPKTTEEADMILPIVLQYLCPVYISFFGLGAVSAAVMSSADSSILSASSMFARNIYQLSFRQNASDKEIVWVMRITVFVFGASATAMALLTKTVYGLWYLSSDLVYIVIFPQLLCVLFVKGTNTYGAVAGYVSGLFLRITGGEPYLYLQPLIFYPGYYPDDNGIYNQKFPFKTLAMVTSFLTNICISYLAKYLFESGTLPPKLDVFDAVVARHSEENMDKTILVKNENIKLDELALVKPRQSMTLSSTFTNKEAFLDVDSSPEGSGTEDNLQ

[4] = target: T1, High affinity choline transporter 1; experiment: CHT inhibitors, dose response, cell-based, 10-point CRC, membrane potential dye (AID 588401); format: functional;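 further: membrane potential dye fluorescence of choline-evoked depolarization via CHT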
[5] = NIH-3T3 fibroblast cytotoxicity, dose response, cytotoxicity control, cell-based, fluorescence, Alamar Blue, secondary assay (AID 2327); format: functional;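 further: NIH-3T3 mouse fibroblasts cultured with fluconazole at 8 µg/mL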
[6] = target: Multidrug resistance protein CDR2 (Candida albicans (strain SC5314 / ATCC MYA-2876) (Yeast), UniProt P78595); experiment: CaCDR2 efflux pump inhibitors in yeast, dose response, S. cerevisiae AD1-8u, singleplex, Cherry Pick2 set (AID 623994); format: functional; conditions: read-out: EC50_MICROM
[7] = C. albicans growth with fluconazole, confirmation, fluorescence, retest (AID 2467); format: functional, cell-based
CHO = experiment: cytotoxicity in TLR9-MyD88 CHO cells, dose response, cytotoxicity control for TLR9-MyD88 binding inhibitor project, cell-based, luminescence (AID 588339); format: functional, hamster; conditions: Cricetulus griseus;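 further: CHO cells stably coexpressing TLR9 and MyD88 fusions from primary screen; compound exposure lasted 48 hours before viability readout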
Insulin-degrading enzyme [8] = target: T2, Insulin-degrading enzyme (Homo sapiens, UniProt P14735); experiment: activators of endogenous IDE in HEK cells, dose response, cell-based, fluorescence polarization (AID 588439); format: functional
T2 sequence (P14735 whole entry): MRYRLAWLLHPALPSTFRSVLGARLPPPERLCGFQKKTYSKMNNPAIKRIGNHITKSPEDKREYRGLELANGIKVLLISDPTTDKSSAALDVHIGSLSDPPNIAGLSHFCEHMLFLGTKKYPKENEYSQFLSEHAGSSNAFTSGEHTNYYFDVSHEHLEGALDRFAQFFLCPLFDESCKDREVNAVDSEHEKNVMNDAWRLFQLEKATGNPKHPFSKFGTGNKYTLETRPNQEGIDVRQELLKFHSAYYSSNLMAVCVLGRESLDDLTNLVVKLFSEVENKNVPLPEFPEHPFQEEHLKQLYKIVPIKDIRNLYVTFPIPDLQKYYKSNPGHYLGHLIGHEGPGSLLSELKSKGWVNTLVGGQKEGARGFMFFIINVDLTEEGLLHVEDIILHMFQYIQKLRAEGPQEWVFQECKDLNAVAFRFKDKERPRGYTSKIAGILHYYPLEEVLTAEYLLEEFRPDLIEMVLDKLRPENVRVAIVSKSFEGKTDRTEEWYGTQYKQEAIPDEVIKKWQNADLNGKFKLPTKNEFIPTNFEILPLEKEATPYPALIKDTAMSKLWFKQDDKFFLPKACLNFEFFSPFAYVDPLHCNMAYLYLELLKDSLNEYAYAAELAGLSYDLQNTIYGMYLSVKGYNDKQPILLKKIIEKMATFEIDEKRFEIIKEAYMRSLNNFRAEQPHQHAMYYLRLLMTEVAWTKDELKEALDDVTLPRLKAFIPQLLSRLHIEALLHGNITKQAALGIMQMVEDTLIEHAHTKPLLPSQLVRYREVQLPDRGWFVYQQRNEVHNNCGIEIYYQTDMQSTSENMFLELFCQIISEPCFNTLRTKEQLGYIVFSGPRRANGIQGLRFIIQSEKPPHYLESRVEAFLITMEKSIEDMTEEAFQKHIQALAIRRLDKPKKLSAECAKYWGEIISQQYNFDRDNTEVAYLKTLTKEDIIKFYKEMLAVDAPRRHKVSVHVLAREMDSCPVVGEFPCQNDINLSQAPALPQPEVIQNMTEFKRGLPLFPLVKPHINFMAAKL

Insulin-degrading enzyme [9] = target: T2, Insulin-degrading enzyme; experiment: activators of recombinant IDE enzyme, dose response, counter-screen for IDE activator project, biochemical, fluorescence polarization (AID 588681)
Beta-lactamase [10] = target: Beta-lactamase (Pseudomonas aeruginosa, UniProt Q79MP6);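 further: biochemical dose-response test of metallo-beta-lactamase enzyme inhibition, read out by epi-absorbance; purified recombinant IMP-1 metallo-beta-lactamase with nitrocefin as substrate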
HEK293 [11] = experiment: optical interference in Abeta FP readout, dose response, artefact control for IDE activator project, biochemical, fluorescence polarization (AID 588442); format: functional, cell-based; conditions: Homo sapiens
HEK293 [12] = experiment: HEK cell cytotoxicity by LDH release, dose response, cytotoxicity control for IDE activator project, fluorescence, HEK cells (AID 588440); format: functional, cell-based; conditions: Homo sapiens;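 further: cytotoxicity by LDH release measuring loss of membrane integrity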
Beta-lactamase [13] = target: Beta-lactamase (Salmonella choleraesuis (strain SC-B67), UniProt Q5J463)
[14] = HepG2 cell cytotoxicity, dose response, cytotoxicity control for Shn3 inhibitor project, CellTiter-Glo, cherry-picked (AID 624134); format: functional, cell-based
[15] = growth suppression of beta-catenin-knockout colon cells, dose response, cell-based, HCT116, human colon tumor (AID 1045); format: functional;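 further: HCT116 colon tumor cells with beta catenin knocked out; cells exposed to compound for 60 hours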
[16] = Shn3 3'UTR reporter inhibitors, dose response, cell-based, Clone20 osteoblasts, firefly luciferase, cherry-picked (AID 624132); format: functional;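 further: firefly luciferase luminescence from reporter carrying the Shn3 3'UTR in osteoblasts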
Cytochrome P450 1A2 = target: T3, Cytochrome P450 1A2 (Homo sapiens, UniProt P05177);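 further: PubChem cytochrome P450 panel assay, CYP1A2 panel member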
T3 sequence (P05177 whole entry): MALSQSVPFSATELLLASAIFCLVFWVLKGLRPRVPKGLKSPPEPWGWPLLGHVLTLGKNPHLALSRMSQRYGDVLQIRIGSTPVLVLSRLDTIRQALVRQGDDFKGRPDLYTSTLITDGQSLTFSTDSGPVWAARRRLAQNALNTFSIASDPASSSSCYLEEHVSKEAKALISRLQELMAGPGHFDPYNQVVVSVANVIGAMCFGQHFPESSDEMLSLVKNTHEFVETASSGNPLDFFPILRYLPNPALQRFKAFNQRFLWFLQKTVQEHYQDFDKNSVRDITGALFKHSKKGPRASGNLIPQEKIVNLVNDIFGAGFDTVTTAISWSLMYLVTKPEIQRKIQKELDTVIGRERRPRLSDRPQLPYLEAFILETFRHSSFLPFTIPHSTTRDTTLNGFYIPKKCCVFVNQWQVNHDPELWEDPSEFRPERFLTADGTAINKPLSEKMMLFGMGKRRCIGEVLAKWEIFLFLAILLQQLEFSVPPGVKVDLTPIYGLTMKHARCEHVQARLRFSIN

[17] = growth suppression of PTEN-null colon cells, dose response, cell-based, HCT116 PTEN knockout (AID 1047); format: functional;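 further: HCT116 colon tumor cells with PTEN knocked out; cells exposed to compound for 60 hours before readout; potency for loss of cell viability measured by luminescence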
[18] = Luminescence Cell-Based Dose Retest to Confirm Inhibitors of Cancer Stem Cells. [Related pubchem assays (depositor defined):AID2717, AID2721]; format: functional; conditions: Homo sapiens
[19] = control 3'UTR Renilla luciferase suppression, dose response, counter-screen for Shn3 inhibitor project, cell-based, Clone20-Shn3RL, cherry-picked (AID 624133); format: functional
INS1 = experiment: beta cell apoptosis inhibitors, cytokine rescue, dose response, luminescence, retest (AID 449756); format: functional, cell-based; conditions: Rattus norvegicus;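 further: cell death triggered by IL-1 beta plus TNF-alpha plus IFN-gamma mixture; protective hits raise ATP signal compared with cytokine alone wells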
Interleukin-8 [20] = target: T4, Interleukin-8 (Homo sapiens, UniProt P10145); experiment: Dose Response confirmation of uHTS small molecule hits for cystic fibrosis induced NFkb Inhibitors in a PAF-induced IL8 counterscreen.; format: functional; conditions: read-out: IC50_Mean
HEK293 [21] = experiment: cells; conditions: Homo sapiens
Interleukin-8 [22] = target: T4, Interleukin-8; experiment: Dose Response confirmation of uHTS small molecule hits for cystic fibrosis induced NFkb Inhibitors in a TNFa-induced IL8 counterscreen.; format: functional; conditions: read-out: IC50_Mean
Kallikrein-7 = Kallikrein-7 (Homo sapiens, UniProt P49862); experiment: Fluorescence Intensity-based biochemical primary high throughput dose response assay to identify activators of kallikrein-7 (K7) zymogen.
HEK293 [23] = experiment: cells; conditions: Homo sapiens; remark: listed apart in the source

Sequence of 72 kDa type IV collagenase (P08253 whole entry): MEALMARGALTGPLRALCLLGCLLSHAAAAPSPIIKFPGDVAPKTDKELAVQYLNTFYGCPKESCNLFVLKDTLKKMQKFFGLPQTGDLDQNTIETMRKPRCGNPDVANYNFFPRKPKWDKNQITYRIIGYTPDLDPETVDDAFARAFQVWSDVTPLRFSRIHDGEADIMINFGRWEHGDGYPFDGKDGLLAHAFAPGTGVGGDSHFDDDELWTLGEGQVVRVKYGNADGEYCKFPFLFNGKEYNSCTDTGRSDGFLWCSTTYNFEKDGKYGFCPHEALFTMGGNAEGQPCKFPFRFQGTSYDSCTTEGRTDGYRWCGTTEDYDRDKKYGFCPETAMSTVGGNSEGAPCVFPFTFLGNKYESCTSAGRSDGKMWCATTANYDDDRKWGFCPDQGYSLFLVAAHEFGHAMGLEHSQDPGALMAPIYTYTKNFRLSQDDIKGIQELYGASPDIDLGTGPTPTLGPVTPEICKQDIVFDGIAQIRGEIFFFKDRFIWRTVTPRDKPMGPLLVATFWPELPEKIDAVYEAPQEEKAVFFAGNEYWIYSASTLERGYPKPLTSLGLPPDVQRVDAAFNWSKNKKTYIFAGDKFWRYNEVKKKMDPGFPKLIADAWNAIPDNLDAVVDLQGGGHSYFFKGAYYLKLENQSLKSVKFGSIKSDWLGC
Sequence of 26S proteasome non-ATPase regulatory subunit 14 (O00487 whole entry): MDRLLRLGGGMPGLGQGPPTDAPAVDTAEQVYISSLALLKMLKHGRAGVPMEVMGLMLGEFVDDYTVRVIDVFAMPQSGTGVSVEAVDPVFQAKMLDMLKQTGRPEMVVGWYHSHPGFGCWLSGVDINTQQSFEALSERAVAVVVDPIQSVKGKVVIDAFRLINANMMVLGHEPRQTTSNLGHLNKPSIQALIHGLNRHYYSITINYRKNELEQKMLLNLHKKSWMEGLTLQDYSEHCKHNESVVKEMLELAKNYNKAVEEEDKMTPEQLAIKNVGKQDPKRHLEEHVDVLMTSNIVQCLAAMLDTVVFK
T4 sequence (P10145 whole entry): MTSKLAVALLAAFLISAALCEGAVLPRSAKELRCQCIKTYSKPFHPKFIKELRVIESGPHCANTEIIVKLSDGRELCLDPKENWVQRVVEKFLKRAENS
Sequence of Beta-lactamase (Salmonella choleraesuis (strain SC-B67), UniProt Q5J463) (Q5J463 whole entry): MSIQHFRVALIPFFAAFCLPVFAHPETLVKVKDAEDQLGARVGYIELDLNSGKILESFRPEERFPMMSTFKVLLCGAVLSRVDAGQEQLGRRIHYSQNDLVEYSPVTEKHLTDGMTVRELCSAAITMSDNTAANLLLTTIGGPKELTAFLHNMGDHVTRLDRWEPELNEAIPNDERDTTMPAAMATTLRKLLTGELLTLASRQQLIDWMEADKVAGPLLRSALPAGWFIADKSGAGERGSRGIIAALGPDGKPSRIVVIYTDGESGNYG
Sequence of Kallikrein-7 (P49862 whole entry): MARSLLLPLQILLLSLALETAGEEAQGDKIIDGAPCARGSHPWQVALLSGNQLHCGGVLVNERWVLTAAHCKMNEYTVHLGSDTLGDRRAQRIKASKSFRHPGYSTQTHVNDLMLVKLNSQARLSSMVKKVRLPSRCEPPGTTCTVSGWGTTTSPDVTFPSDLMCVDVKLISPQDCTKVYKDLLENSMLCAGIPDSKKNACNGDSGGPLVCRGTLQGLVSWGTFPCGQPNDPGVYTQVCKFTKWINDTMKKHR
Sequence of Beta-lactamase (Pseudomonas aeruginosa, UniProt Q79MP6) (Q79MP6 whole entry): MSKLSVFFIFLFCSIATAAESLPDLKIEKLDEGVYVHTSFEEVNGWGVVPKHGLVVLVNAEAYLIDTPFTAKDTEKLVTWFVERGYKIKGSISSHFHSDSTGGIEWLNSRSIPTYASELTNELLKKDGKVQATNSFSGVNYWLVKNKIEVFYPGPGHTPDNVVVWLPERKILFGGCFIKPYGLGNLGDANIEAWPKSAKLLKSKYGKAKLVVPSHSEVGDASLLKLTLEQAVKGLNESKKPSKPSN
Sequence of Multidrug resistance protein CDR2 (P78595 whole entry): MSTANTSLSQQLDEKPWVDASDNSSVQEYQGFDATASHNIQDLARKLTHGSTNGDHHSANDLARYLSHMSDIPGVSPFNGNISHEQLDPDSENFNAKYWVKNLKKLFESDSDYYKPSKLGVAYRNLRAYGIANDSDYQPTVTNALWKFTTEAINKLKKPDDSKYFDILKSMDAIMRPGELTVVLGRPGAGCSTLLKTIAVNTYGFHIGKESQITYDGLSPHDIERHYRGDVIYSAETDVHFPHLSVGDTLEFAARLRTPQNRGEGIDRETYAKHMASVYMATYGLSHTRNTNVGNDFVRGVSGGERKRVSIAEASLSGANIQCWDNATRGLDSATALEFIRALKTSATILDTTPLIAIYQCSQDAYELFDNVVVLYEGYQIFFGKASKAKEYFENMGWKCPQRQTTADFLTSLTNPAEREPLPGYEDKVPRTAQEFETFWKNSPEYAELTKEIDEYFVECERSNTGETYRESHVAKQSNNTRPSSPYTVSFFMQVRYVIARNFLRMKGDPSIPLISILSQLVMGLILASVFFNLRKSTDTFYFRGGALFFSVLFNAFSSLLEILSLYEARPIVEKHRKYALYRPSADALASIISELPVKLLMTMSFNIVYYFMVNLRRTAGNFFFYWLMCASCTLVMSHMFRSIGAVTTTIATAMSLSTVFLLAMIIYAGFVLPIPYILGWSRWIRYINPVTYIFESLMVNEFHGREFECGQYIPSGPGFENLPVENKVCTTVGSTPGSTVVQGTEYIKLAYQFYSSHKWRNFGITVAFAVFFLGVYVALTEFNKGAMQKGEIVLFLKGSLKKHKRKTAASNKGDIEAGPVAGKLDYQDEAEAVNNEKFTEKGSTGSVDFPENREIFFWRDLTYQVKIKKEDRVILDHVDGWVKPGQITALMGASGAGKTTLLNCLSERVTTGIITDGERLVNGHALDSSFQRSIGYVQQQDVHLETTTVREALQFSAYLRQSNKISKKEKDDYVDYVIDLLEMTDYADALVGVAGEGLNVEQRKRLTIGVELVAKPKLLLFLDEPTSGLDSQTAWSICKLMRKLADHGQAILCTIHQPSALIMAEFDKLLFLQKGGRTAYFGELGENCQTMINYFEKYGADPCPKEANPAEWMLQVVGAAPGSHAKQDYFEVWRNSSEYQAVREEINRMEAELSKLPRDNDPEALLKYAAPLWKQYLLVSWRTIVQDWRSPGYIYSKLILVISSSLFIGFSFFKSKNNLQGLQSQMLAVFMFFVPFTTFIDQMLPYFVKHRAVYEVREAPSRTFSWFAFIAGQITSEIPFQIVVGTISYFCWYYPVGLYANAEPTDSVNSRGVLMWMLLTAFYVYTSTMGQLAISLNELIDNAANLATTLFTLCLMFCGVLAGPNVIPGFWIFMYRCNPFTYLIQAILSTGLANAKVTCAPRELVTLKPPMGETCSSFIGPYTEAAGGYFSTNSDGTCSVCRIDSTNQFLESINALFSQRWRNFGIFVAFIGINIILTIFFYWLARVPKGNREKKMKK

Structure (SMILES): Cc1cc(C(F)(F)F)nc(SCCN2CCOCC2)c1C#N
- IC50 [1]: > 100 µM (inactive)
- IC50 (Prothrombin): 25.7 µM (active)
- IC50 [2]: 19.7 µM (active)

Structure (SMILES): CCCCn1nc2cc(C(=O)N[C@H](C)C3CCCCC3)ccc2c1OCC
- IC50 [3]: 7.76 µM (active)
- IC50 [4]: 4.47 µM (active)

Structure (SMILES): CCC(=O)N1CCN(c2ccc(Cl)cc2NC(=O)c2ccc3c(c2)OCCO3)CC1
- EC50 [5]: 117 µM (active)
- EC50 [6]: 32.1 µM (active)
- EC50 [7]: 3.35 µM (active)

Structure (SMILES): CCCCNc1ccc2c3c(cccc13)C(=O)N(CCCC)C2=O
- IC50 (CHO): > 49.7 µM (inactive)
- EC50 (Insulin-degrading enzyme [8]): > 54.7 µM (inactive)
- EC50 (Insulin-degrading enzyme [9]): > 54.7 µM (inactive)
- IC50 (Beta-lactamase [10]): 37.2 µM (inactive)
- EC50 (HEK293 [11]): 12.1 µM (inactive)
- IC50 (HEK293 [12]): > 89.1 µM (inactive)
- IC50 (Beta-lactamase [13]): 3.89 µM (active)

Structure (SMILES): COc1ccc(Cn2c(SCc3ccccc3C)nc3cc(OC)c(OC)cc3c2=N)cc1
- AC50 [14]: 12.8 µM (active)
- EC50 [15]: 3.81 µM (active)
- EC50 (Insulin-degrading enzyme [8]): 9.39 µM (active)
- AC50 [16]: 5.46 µM (active)
- AC50 (Cytochrome P450 1A2): 15.8 µM (inconclusive)
- EC50 (Insulin-degrading enzyme [9]): > 54.7 µM (inactive)
- EC50 [17]: 4.85 µM (active)
- AC50 [18]: 2.71 µM (active)
- AC50 [19]: 16 µM (active)
- EC50 (HEK293 [11]): > 54.7 µM (inactive)
- IC50 (HEK293 [12]): 18.5 µM (inactive)
- AC50 (INS1): 4.3 µM (active)

Structure (SMILES): O=C(NCCc1ccccc1)c1coc(=O)c(Br)c1
- IC50 (Interleukin-8 [20]): 0.987 µM (active)
- EC50 (HEK293 [21]): > 59.6 µM (inactive)
- IC50 (Interleukin-8 [22]): 0.684 µM (active)
- EC50 (Kallikrein-7): 16.5 µM (inactive)
- EC50 (HEK293 [23]): > 59.6 µM (inactive)

Structure (SMILES): CSc1nsc(/C=C/Nc2ccc(C(=O)O)cc2)c1C#N
- IC50 [1]: 45 µM (active)
- IC50 (Prothrombin): 27.6 µM (active)
- IC50 [2]: 24.8 µM (active)
